Results reported in patent US10994018B2, “Long-acting palmitic acid-conjugated GnRH derivative, and pharmaceutical composition containing same” (priority 2017, dated 2021).
Read-outs that look alike come from different tables or passages of the source. Where a SMILES comes first, the peptide text is derived from it. [ ]: non-standard residue; d: D form. The star is where a group is joined. Palmitoyl = CCCCCCCCCCCCCCCC(=O)*

Columns and labels:
[1] = tested on: prostate cancer cell line DU-145; assay: Cell death assay (Cell Counting Kit-8) on prostate cancer cells; format: cell-based
Experimental: GnRH derivatives are clinically applied to the treatment of diseases including breast cancer, prostate cancer, endometriosis, central precocious puberty, and the like. The DU-145 cell line, which is a type of prostate cancer cells, was cultured in T75 flasks containing an adequate amount of RPIM 1640 culture medium (containing 10% FBS, penicillin/streptomycin, and 1% non-essential amino acids) in a sterile incubator having 5% CO2/95% air at 37° C. Cell death assay was performed using the Cell Counting Kit-8 (CCK-8, manufactured by DOJINDO). The […] cells were separated from the T75 flasks by trypsinization treatment and transferred to 96-well plates at a density of 1×10^4 cells/well, followed by incubation for one hour for attachment. Subsequently, the cells were treated with various concentrations of GnRH or GnRH derivatives, and control reagents. Specifically, 1% DMSO was used as a negative control for cell death while 0.1% SDS served as a positive control. After 48 hours of incubation, the existing culture medium was removed, and 100 μL of fresh culture medium and 10 μL of CCK-8 solution were applied to each well. Again, after 48 hours of incubation, the medium solution was replaced by 100 μL of fresh culture medium and 10 μL of CCK-8 solution. The cells were incubated for 4 hours, and then the absorbance was measured at 450 nm to assess cell viability.

[2] = Blood concentration and pharmacokinetics after single subcutaneous administration to rats (LC/MSMS); format: in vivo, female SD rats; conditions: rat
Experimental: Before administration and at 0.5, 1, 2, and 6 hours and on days 1, 3, 7, 10, 14, 21, and 28 after administration, blood samples were taken from the tail vein of the rats and measured for the blood concentrations of Leuprolide and GnRH derivatives, using LC/MSMS. If the concentration reached about 4 ng/mL at a specific time point, no measurements were further made for the next time point. The measurement results are graphically depicted in FIGS. 4 to 6. Based on the results, pharmacokinetic analysis was carried out by calculating the half-life (t1/2), clearance rate (CL), volume of distribution (Vd), time to reach the maximum concentration following drug administration (Tmax), maximum concentration following drug administration (Cmax), and systemic exposure to drug (AUCt). The analysis results are as follows.

[3] = emulsion; same dose (Peng et al., 2010); cited from earlier work
[4] = cited from earlier work
[5] = female, SD, in vivo, sc, 12.5 mg/kg
[6] = female, SD, in vivo, sc, 12.5 mg/kg, blood concentration, Mean

CCNC(=O)[C@@H]1CCCN1C(=O)[C@H](CCCNC(=N)N)NC(=O)[C@H](CC(C)C)NC(=O)[C@@H](CC(C)C)NC(=O)[C@H](Cc1ccc(O)cc1)NC(=O)[C@H](CO)NC(=O)[C@H](Cc1c[nH]c2ccccc12)NC(=O)[C@H](Cc1c[nH]cn1)NC(=O)[C@@H]1CCC(=O)N1 [Leuprolide, pyroGlu-His-Trp-Ser-Tyr-DLeu-Leu-Arg-Pro-NHEt, reference compound]
cell death rate on prostate cancer cells ([1]; DU-145 cells): about 10% | AUC(0-t) [2, 5]: 1.66 µg·h/mL | Cmax [2, 5]: 1.02 µg/mL | Tmax [2, 5]: 28.8 min | half-life [2, 5]: 43.2 min | level at 0.5 h [2, 6]: 1.02 µg/mL | level at 1 h [2, 6]: 0.769 µg/mL | level at 2 h [2, 6]: 0.228 µg/mL | level at 6 h [2, 6]: 0.00288 µg/mL | CL (clearance rate) ([2]; in vivo, sc, 12.5 mg/kg): 0.180 (mg/kg)/(ng/ml)/day | Vd (volume of distribution) ([2]; in vivo, sc, 12.5 mg/kg): 0.007 (mg/kg)/(ng/ml)

dexamethasone palmitate
anti-inflammatory effect, fold higher than dexamethasone alone [3]: 5.6 fold

CCCCCCCCCCCCCCCC(=O)N[C@@H](CCC(N)=O)C(=O)N[C@@H](Cc1c[nH]cn1)C(=O)N[C@@H](Cc1c[nH]c2ccccc12)C(=O)N[C@@H](CO)C(=O)N[C@@H](Cc1ccc(O)cc1)C(=O)N[C@H](CC(C)C)C(=O)N[C@@H](CC(C)C)C(=O)N[C@@H](CCCNC(=N)N)C(=O)N1CCC[C@H]1C(=O)NCC [Derivative P2, Palmitate-Gln-His-Trp-Ser-Tyr-DLeu-Leu-Arg-Pro-NHEt] (Palmitoyl-QHWSY[dL]LRP-NHEt)
fold greater cytotoxic effects compared to Leuprolide or GnRH [1]: 7- to 7.5 fold | level at 0.5 h ([2]; female, SD, blood, sc, 12.5 mg/kg, s.c. once 12.5 mg/kg, 0.5 hr., read-out: blood concentration, Mean): 0.0118 µg/mL | level at 1 h ([2]; female, SD, blood, sc, 12.5 mg/kg, s.c. once 12.5 mg/kg, 1 hr., read-out: blood concentration, Mean): 0.0169 µg/mL | level at 2 h ([2]; female, SD, blood, sc, 12.5 mg/kg, s.c. once 12.5 mg/kg, 2 hr., read-out: blood concentration, Mean): 0.0291 µg/mL | level at 6 h ([2]; female, SD, blood, sc, 12.5 mg/kg, s.c. once 12.5 mg/kg, 6 hr., read-out: blood concentration, Mean): 0.0522 µg/mL | level at 24 h ([2]; female, SD, blood, sc, 12.5 mg/kg, s.c. once 12.5 mg/kg, 1 day): 0.045 µg/mL | level at 168 h ([2]; female, SD, blood, sc, 12.5 mg/kg, s.c. once 12.5 mg/kg, 7 days): 0.0119 µg/mL | level at 240 h ([2]; female, SD, blood, sc, 12.5 mg/kg, s.c. once 12.5 mg/kg, 10 days): 0.00818 µg/mL | level at 336 h ([2]; female, SD, blood, sc, 12.5 mg/kg, s.c. once 12.5 mg/kg, 14 days): 0.00435 µg/mL | CL (clearance rate) ([2]; s.c. once 12.5 mg/kg): 0.051 (mg/kg)/(ng/ml)/day | Vd (volume of distribution) ([2]; s.c. once 12.5 mg/kg): 0.351 (mg/kg)/(ng/ml)

CCCCCCCCCCCCCCCC(=O)N[C@@H](CCC(=O)O)C(=O)N[C@@H](Cc1c[nH]cn1)C(=O)N[C@@H](Cc1c[nH]c2ccccc12)C(=O)N[C@@H](CO)C(=O)N[C@@H](Cc1ccc(O)cc1)C(=O)N[C@H](CC(C)C)C(=O)N[C@@H](CC(C)C)C(=O)N[C@@H](CCCNC(=N)N)C(=O)N1CCC[C@H]1C(=O)NCC [Derivative P3, Palmitate-Glu-His-Trp-Ser-Tyr-DLeu-Leu-Arg-Pro-NHEt] (Palmitoyl-EHWSY[dL]LRP-NHEt)
fold greater cytotoxic effects compared to Leuprolide or GnRH [1]: 7- to 7.5 fold

CCCCCCCCCCCCCCCC(=O)N[C@@H](CCC(N)=O)C(=O)N[C@@H](Cc1c[nH]cn1)C(=O)N[C@@H](Cc1c[nH]c2ccccc12)C(=O)N[C@@H](CO)C(=O)N[C@@H](Cc1ccc(O)cc1)C(=O)N[C@H](CC(C)C)C(=O)N[C@@H](CC(C)C)C(=O)N[C@@H](CCCNC(=N)N)C(=O)N1CCC[C@H]1C(=O)NCC [Derivative P4, Palmitate-Gln-His-Trp-Ser-Tyr-DLeu-Leu-Arg-Pro-NHEt] (Palmitoyl-QHWSY[dL]LRP-NHEt)
level at 504 h ([2]; female, SD, blood, sc, 12.5 mg/kg, s.c. once 12.5 mg/kg, 21 days): 0.00126 µg/mL | CL (clearance rate) ([2]; s.c. once 12.5 mg/kg): 0.075 (mg/kg)/(ng/ml)/day | Vd (volume of distribution) ([2]; s.c. once 12.5 mg/kg): 0.436 (mg/kg)/(ng/ml)

CCCCCCCCCCCCOS(=O)(=O)[O-].[Na+] [0.1% SDS, reference compound]
Viability relative to control (%) ([1]; DU-145 cells, positive control at 0.1%): 21.7%

CC(C)C[C@H](NC(=O)CNC(=O)[C@H](Cc1ccc(O)cc1)NC(=O)[C@H](CO)NC(=O)[C@H](Cc1c[nH]c2ccccc12)NC(=O)[C@H](Cc1cnc[nH]1)NC(=O)[C@@H]1CCC(=O)N1)C(=O)N[C@@H](CCCNC(=N)N)C(=O)N1CCC[C@H]1C(=O)NCC(N)=O [GnRH]
in vivo half-life in circulating blood [4]: 2 to 4 min
